Source: patent US20260285850A1, “SUBSTITUTED OXAZOLIDINONES AND IMIDAZOLINONES AS HERBICIDES” (FMC CORPORATION, priority 2023, published 2026)

What was measured:
Format in all cases: in vivo
[1] = tested on: barnyardgrass (Echinochloa crus-galli); assay: Test A preemergence soil spray, visual injury rating 0-100; conditions: 10 days, 0 = no effect, 100 = complete control
How it was run: (§1)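 Visual injury, scored 0-100 (100 = complete control) against untreated plants, 10 days after greenhouse treatment. Test chemicals in surfactant-containing non-phytotoxic solvent were applied in loam soil and sand, as a preemergence soil spray on seeds or postemergence to plants at the one- to two-leaf stage.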

[2] = tested on: blackgrass (Alopecurus myosuroides); assay: as above; conditions: 10 days, 0 = no effect, 100 = complete control
How it was run: as §1

[3] = tested on: corn (Zea mays); assay: as above; conditions: 10 days, 0 = no effect, 100 = complete control
How it was run: as §1

[4] = tested on: green foxtail (Setaria viridis); assay: as above; conditions: 10 days, 0 = no effect, 100 = complete control
How it was run: as §1

[5] = tested on: kochia (Bassia scoparia); assay: as above; conditions: 10 days, 0 = no effect, 100 = complete control
How it was run: as §1

[6] = tested on: oat, wild (wild oat, Avena fatua); assay: as above; conditions: 10 days, 0 = no effect, 100 = complete control
How it was run: as §1

[7] = tested on: palmer (palmer amaranth, palmer pigweed, Amaranthus palmeri); assay: as above; conditions: 10 days, 0 = no effect, 100 = complete control
How it was run: as §1

[8] = tested on: ragweed (common ragweed, Ambrosia artemisiifolia); assay: as above; conditions: 10 days, 0 = no effect, 100 = complete control
How it was run: as §1

[9] = tested on: ryegrass, Italian (italian ryegrass, Lolium multiflorum); assay: as above; conditions: 10 days, 0 = no effect, 100 = complete control
How it was run: as §1

[10] = tested on: soybean (Glycine max); assay: as above; conditions: 10 days, 0 = no effect, 100 = complete control
How it was run: as §1

[11] = tested on: wheat (Triticum aestivum); assay: as above; conditions: 10 days, 0 = no effect, 100 = complete control
How it was run: as §1

[12] = tested on: barnyardgrass (Echinochloa crus-galli); assay: Test A postemergence application, visual injury rating 0-100; conditions: 10 days
How it was run: as §1

[13] = tested on: blackgrass (Alopecurus myosuroides); assay: as above; conditions: 10 days
How it was run: as §1

[14] = tested on: corn (Zea mays); assay: as above; conditions: 10 days
How it was run: as §1

[15] = tested on: galium (catchweed bedstraw, Galium aparine); assay: as above; conditions: 10 days
How it was run: as §1

[16] = tested on: green foxtail (Setaria viridis); assay: as above; conditions: 10 days
How it was run: as §1

[17] = tested on: horseweed (Erigeron canadensis); assay: as above; conditions: 10 days
How it was run: as §1

[18] = tested on: kochia (Bassia scoparia); assay: as above; conditions: 10 days
How it was run: as §1

[19] = tested on: oat, wild (wild oat, Avena fatua); assay: as above; conditions: 10 days
How it was run: as §1

[20] = tested on: palmer (palmer amaranth, palmer pigweed, Amaranthus palmeri); assay: as above; conditions: 10 days
How it was run: as §1

[21] = tested on: ragweed (common ragweed, Ambrosia artemisiifolia); assay: as above; conditions: 10 days
How it was run: as §1

[22] = tested on: ryegrass, Italian (italian ryegrass, Lolium multiflorum); assay: as above; conditions: 10 days
How it was run: as §1

[23] = tested on: soybean (Glycine max); assay: as above; conditions: 10 days
How it was run: as §1

[24] = tested on: wheat (Triticum aestivum); assay: as above; conditions: 10 days
How it was run: as §1

[25] = tested on: barnyardgrass (Echinochloa crusgalli); assay: Test B flooded paddy test, visual plant response rating 0-100; conditions: 250 g ai/ha, Flood, applied to paddy water, evaluated after 13 days
How it was run: (§2)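 In this flooded assay, 2-leaf seedlings received compound through the water layer, kept at 3 cm over the soil. Plants were held 13 days in a greenhouse and then visually compared with control pots.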

[26] = tested on: ducksalad (Heteranthera limosa); assay: as above; conditions: 250 g ai/ha, Flood, applied to paddy water, evaluated after 13 days
How it was run: as §2

[27] = tested on: rice (Oryza sativa); assay: as above; conditions: 250 g ai/ha, Flood, applied to paddy water, evaluated after 13 days
How it was run: as §2

[28] = tested on: sedge, umbrella (small-flower umbrella sedge, Cyperus difformis); assay: as above; conditions: 250 g ai/ha, Flood, applied to paddy water, evaluated after 13 days
How it was run: as §2

[29] = 31 g ai/ha, postemergence, 0 = no effect, 100 = complete control
[30] = Postemergence, 125 g ai/ha, 0 is no effect, 100 is complete control

## CC1(C(=O)NC2CCC(C(=O)NS(C)(=O)=O)C2)CN(c2cc(F)cc(F)c2)C(=O)O1 (stereo not shown) [Compound 13]
[1]; 31 g ai/ha
  Barnyardgrass plant response rating (0-100): 0
[1]; 125 g ai/ha
  Barnyardgrass plant response rating (0 to 100 scale): 20
[2]; 31 g ai/ha
  Blackgrass plant response rating (0-100): 20
[2]; 125 g ai/ha
  Blackgrass plant response rating (0 to 100 scale): 50
[3]; 31 g ai/ha
  Corn plant response rating (0-100): 0
[3]; 125 g ai/ha
  Corn plant response rating (0 to 100 scale): 0
[4]; 31 g ai/ha
  Foxtail, Green plant response rating (0-100): 0
[4]; 125 g ai/ha
  Foxtail, Green plant response rating (0 to 100 scale): 50
[5]; 31 g ai/ha
  Kochia plant response rating (0-100): 0
[5]; 125 g ai/ha
  Kochia plant response rating (0 to 100 scale): 0
[6]; 31 g ai/ha
  Oat, Wild plant response rating (0-100): 0
[6]; 125 g ai/ha
  Oat, Wild plant response rating (0 to 100 scale): 20
[7]; 31 g ai/ha
  Amaranth, Palmer plant response rating (0-100): 0
[7]; 125 g ai/ha
  Amaranth, Palmer plant response rating (0 to 100 scale): 0
[8]; 31 g ai/ha
  Ragweed plant response rating (0-100): 40
[8]; 125 g ai/ha
  Ragweed plant response rating (0 to 100 scale): 20
[9]; 31 g ai/ha
  Ryegrass, Italian plant response rating (0-100): 20
[9]; 125 g ai/ha
  Ryegrass, Italian plant response rating (0 to 100 scale): 90
[10]; 31 g ai/ha
  Soybean plant response rating (0-100): 0
[10]; 125 g ai/ha
  Soybean plant response rating (0 to 100 scale): 0
[11]; 31 g ai/ha
  Wheat plant response rating (0-100): 0
[11]; 125 g ai/ha
  Wheat plant response rating (0 to 100 scale): 80
[12]; [29]
  Barnyardgrass plant response rating (0-100): 10
[12]; [30]
  Barnyardgrass plant response rating (0 to 100 scale): 70
[13]; [29]
  Blackgrass plant response rating (0-100): 10
[13]; [30]
  Blackgrass plant response rating (0 to 100 scale): 60
[14]; [29]
  Corn plant response rating (0-100): 0
[14]; [30]
  Corn plant response rating (0 to 100 scale): 30
[15]; [29]
  Galium plant response rating (0-100): 0
[15]; [30]
  Galium plant response rating (0 to 100 scale): 70
[16]; [29]
  Foxtail, Green plant response rating (0-100): 0
[16]; [30]
  Foxtail, Green plant response rating (0 to 100 scale): 50
[17]; [29]
  Horseweed plant response rating (0-100): 0
[17]; [30]
  Horseweed plant response rating (0 to 100 scale): 20
[18]; [29]
  Kochia plant response rating (0-100): 0
[18]; [30]
  Kochia plant response rating (0 to 100 scale): 50
[19]; [29]
  Oat, Wild plant response rating (0-100): 10
[19]; [30]
  Oat, Wild plant response rating (0 to 100 scale): 50
[20]; [29]
  Amaranth, Palmer plant response rating (0-100): 10
[20]; [30]
  Amaranth, Palmer / Pigweed, Palmer plant response rating (0 to 100 scale): 90
[21]; [29]
  Ragweed plant response rating (0-100): 0
[21]; [30]
  Ragweed plant response rating (0 to 100 scale): 20
[22]; [29]
  Ryegrass, Italian plant response rating (0-100): 20
[22]; [30]
  Ryegrass, Italian plant response rating (0 to 100 scale): 70
[23]; [29]
  Soybean plant response rating (0-100): 0
[23]; [30]
  Soybean plant response rating (0 to 100 scale): 50
[24]; [29]
  Wheat plant response rating (0-100): 50
[24]; [30]
  Wheat plant response rating (0 to 100 scale): 70
[25]
  Plant response rating, Barnyardgrass (0 to 100 scale, 0 is no effect and 100 is complete control): 0
[26]
  Plant response rating, Ducksalad (0 to 100 scale, 0 is no effect and 100 is complete control): 0
[27]
  Plant response rating, Rice (0 to 100 scale, 0 is no effect and 100 is complete control): 0
[28]
  Plant response rating, Sedge, Umbrella (0 to 100 scale, 0 is no effect and 100 is complete control): 0
